Key:
[1] = test system: mice subjected to hypobaric hypoxia; assay: Hypobaric hypoxia in mice (survival time); format: in vivo, NMRI male mice; conditions: for Percentage variation / Survival time in seconds (m ± sem): Table 4: mice, hypobaric hypoxia 160 mmHg
Experimental: 1.1 Hypobaric Hypoxia in Mice
NMRI male mice from Janvier weighing between 25 and 30 grams were used after acclimatisation in the animal house for at least 7 days (t°=22±2° C.; humidity 50±20%; feed UAR “A04” SAFE (Augy, France) and tap water ad libitum; 12 hour night and day cycle (light from 7 a.m. to 7 p.m.).
The unfasting […] were distributed at random into lots of 10.
The protocol of Nakaniski et al. (1973) Life Sciences, 13, 467-474 was adapted for the purposes of the model.
Each mouse was placed in a dessicator (hermetically sealed enclosure) in which atmospheric pressure was reduced from 760 to 160 mmHg using a water pump. This pressure reduction was carried out in one minute and caused death of the control animals in approximately 1 minute.
The survival time of the animal, which corresponded to the difference between the time to death of the mouse assessed by respiratory arrest less the time required to induce the hypoxia was then noted.
The products under investigation were administered intraperitoneally (i.p.) (0.1 ml/10 g), 30 minutes before inducing hypobaric hypoxia, or orally (0.1 ml/10 g p.o.) 1 hour before hypoxia.
Etifoxine hydrochloride was dissolved in 1% Tween 80. The potassium cyanide (Merck) was dissolved in 0.9% NaCl.
The statistical test used was a one-factor analysis of variance to determine the treated groups, which differed from the control group receiving the vehicle, at a threshold of 5%.

[2] = test system: mixed cultures of rat cortical neurones and astrocytes; assay: Density of neuritic extensions marked by anti-neurofilament antibody, with or without excess glutamate; format: cell-based; conditions: 10 μM of glutamate (so in the source), 6 hours, compound 1, 3 and 10 μM
[3] = test system: cortical neurones in the presence of astrocytes in culture; assay: Prior cytotoxicity, microscopic observation after 48 hours; format: cell-based; conditions: 100 μM, 48 hours incubation
Experimental: (§1) • Cell type: Initial culture of cortical neurones from 14 day rat embryos and initial culture of cortical astrocytes from newborn rats. • Culture medium: DMEM-Ham F12 (Invitrogen 21331020) • B27 2% (invitrogen 17504044) • L-glutamine 2 mM (Invitrogen 25030024) • Penicillin 50 UI/ml—Streptomycin 50 μg/ml (Invitrogen 15070063) • Nerve Growth Factor 10 ng/ml (NGF, Invitrogen 13290.010) • Survival medium: MEM (Invitrogen 21090022) • L-glutamine 2 mM (Invitrogen 25030024) • Penicillin 50 UI/ml—Streptomycin 50 μg/ml (Invitrogen 15070063) • Supplement N2 (Invitrogen 17502-048) 1.2 Prior Cytotoxicity • Platelets: 96 wells • Culture time: 8 days • Cells/well: cortical neurones+astrocytes • Product range: from 100 μM then ratio 3 • Replicates: 3 • Cell/product contact: 48 hours • Evaluation parameters: microscopic observation and MTT hydrolysis. • MTT: 3-(4,5-dimethylthiozol-2-yl)-2,5-diphenyltetrazolium bromide 1.3 Treatment and Analysis of the Network of Extensions Marked with Antineurofilament Antibody
A first experiment was carried out (conventional test used to measure the level of cell survival) in order to investigate the cytotoxicity of etifoxine in relation to cortical neurones in the presence of astrocytes in culture and thus to determine the maximum non-toxic concentration of etifoxine.

[4] = test system: rats subjected to histotoxic hypoxia induced by potassium cyanide; assay: KCN (i.v.) hypoxia in rats (survival time); format: in vivo, Wistar male rats; conditions: for Percentage variation / Survival time in seconds (m ± sem): Table 5: rats, KCN 4 mg/kg i.p. (so in the source)
[5] = test system: mixed cultures of rat cortical neurones and astrocytes; assay: Density of neuritic extensions marked by anti-neurofilament antibody, with or without excess glutamate; format: cell-based
Text: The principle of the investigation consisted of evaluating the survival of cortical neurones in co-culture with astrocytes after the application of a neurotoxic agent, excess glutamate.
Neurone survival is quantified by the density of the system of neuritic extensions marked by an anti-neurofilament antibody in the absence or presence of glutamate.
as §1
The cortical neurones were obtained from the cortex of 14 day rat embryos cultured in platelet culture medium 96 and then in a stove at 37° C. and 5% CO2 with saturated humidity. After 2 days culture astrocytes obtained from newborn rat cortex were seeded in the wells (in a ratio of 1 astrocyte to 4 neurones). After 10 days culture the mature neurones synthesised neurofilaments (structural protein specific to mature neurones); in addition to this these neurones expressed functional receptors to glutamate on their surfaces and could therefore be intoxicated.
On the 12th day of culture the medium was replaced by survival medium with or without etifoxine in 3 concentrations and the neurones were or were not intoxicated with glutamate (Sigma G1501) at a strength of 2 mM and 10 mM. Each culture condition was applied to 4 wells. The cultures were incubated for 2 periods (6 and 24 hours).
A positive control was carried out in the survival culture medium containing Nerve Growth Factor (NGF; 10 ng/ml) and basic Fibroblast Growth Factor (FGFb; 5 ng/ml) and the cells were intoxicated under the same conditions.
At the end of the two incubation periods (6 and 24 hours) the cell layers were fixed and marked with a anti-68- and 200 kD neurofilament monoclonal antibody (DAKO M0762) and then developed using a mouse anti-immunoglobulin goat antibody conjugate Alexia fluor 488 (Interchim A-11029). Controls without primary antibody were performed. All the controls were negative (no non-specific labelling). After extensive washing with PBS the preparations were observed under epi-fluorescence (Nikon Diaphot 300 microscope).
2 images were obtained for each culture well (4 wells per experimental condition) using a Nikon DXM1200F camera controlled by LUCIA 6.0 software.
All the images were obtained under the same conditions and with identical camera settings.
The densities of the networks of extensions marked with anti-neurofilament antibody were examined using LUCIA 6.0 software. Initial image processing made it possible to increase the intensity of the specific marking on the extensions. Areas in which marking was positive were binarised and the percentage marking per image was determined (marked surface area/total surface area examined).
The results (mean values±standard error with respect to the mean (SEM) were expressed as percentage marking per microscope field (n=8 measurements/culture conditions). 2-factor analysis of variance (Etifoxine and glutamate), followed by the Student Newman-Keuls multiple comparisons test was used for statistical comparison of the results. […]

CC1(c2ccccc2)OC(N)=Nc2ccc(Cl)cc21 (stereo not shown) [desethyl-etifoxine, 2-amino-6-chloro-4-methyl-4-phenyl-4H-[3,1]benzoxazine]
Percentage variation ([1]; i.p. dose 30): +34%
Survival time in seconds (m ± sem) ([1]; i.p. dose 30): 71.7 ± 4.8 s
Percentage variation ([1]; i.p. dose 50): +32%
Survival time in seconds (m ± sem) ([1]; i.p. dose 50): 70.7 ± 4.3 s
Percentage variation ([1]; i.p. dose 75): +30%
Survival time in seconds (m ± sem) ([1]; i.p. dose 75): 69.8 ± 2.7 s
Percentage variation ([1]; p.o. dose 100): +45%
Survival time in seconds (m ± sem) ([1]; p.o. dose 100): 61.0 ± 2.6 s
Percentage variation ([1]; p.o. dose 200): +126%
Survival time in seconds (m ± sem) ([1]; p.o. dose 200): 94.9 ± 9.9 s
Percentage variation ([1]; p.o. dose 300): +126%
Survival time in seconds (m ± sem) ([1]; p.o. dose 300): 94.8 ± 11.2 s
survival time ([1]; mice, hypobaric hypoxia, oral administration from 200 mg/kg): significant increase in survival time
anti-hypoxic activity ([1]; mice, hypobaric hypoxia, over 30 mg/kg i.p.): showed anti-hypoxic activity
density of marked neurofilaments in the presence of glutamate [2]: opposes the decrease in the density of marked neurofilaments
astrocyte mortality, visual examination with a microscope [3]: astrocyte mortality was observed
Percentage variation ([4]; compound i.p. dose 30): −4%
Survival time in seconds (m ± sem) ([4]; compound i.p. dose 30): 55.0 ± 1.5 s
Percentage variation ([4]; compound i.p. dose 50): −3%
Survival time in seconds (m ± sem) ([4]; compound i.p. dose 50): 55.6 ± 1.5 s
Percentage variation ([4]; compound i.p. dose 75): +27%
Survival time in seconds (m ± sem) ([4]; compound i.p. dose 75): 72.7 ± 5.5 s
Percentage variation ([4]; compound p.o. dose 50): +3%
Survival time in seconds (m ± sem) ([4]; compound p.o. dose 50): 58.8 ± 1.9 s
Percentage variation ([4]; compound p.o. dose 100): +42%
Survival time in seconds (m ± sem) ([4]; compound p.o. dose 100): 81.3 ± 3.8 s
Percentage variation ([4]; compound p.o. dose 200): +43%
Survival time in seconds (m ± sem) ([4]; compound p.o. dose 200): 81.7 ± 4.1 s
survival time ([4]; rats, KCN hypoxia, 75 mg/kg i.p.): increased survival time in a non-significant manner
anti-hypoxic activity ([4]; rats, KCN hypoxia, over 100 mg/kg p.o.): showed anti-hypoxic activity
density of marked neurofilaments ([5]; control culture medium (without glutamate), 6 hours, significant at 10 μM): increased the density of labelled neurofilaments in a statistically significant way
density of neurofilaments in the presence of glutamate ([5]; glutamate 2 mM, 6 hours, only 10 μM of compound): opposes the effect of glutamate

FGF: positive control: survival culture medium containing Nerve Growth Factor (NGF; 10 ng/ml) and basic Fibroblast Growth Factor (FGFb; 5 ng/ml)
density of neurofilaments in the presence of glutamate ([5]; positive control NGF 10 ng/ml + FGFb 5 ng/ml, glutamate 2 mM, 24 hours): opposed the effects of 2 mM of glutamate
density of neurofilaments in the presence of glutamate ([5]; positive control NGF 10 ng/ml + FGFb 5 ng/ml, glutamate 2 and 10 mM, 6 hours): opposed the decrease in density of neurofilaments induced by glutamate
